Test results as given in US20110039762A1, “TARGETED ANTIMICROBIAL MOIETIES” (C3 JIAN, INC., priority 2009, published 2011).
≈ marks a conversion by molar mass, not a printed value. Peptide text beside a SMILES is read from it.

Legend:
P. aeruginosa [1] = format: cell-based, Pseudomonas aeruginosa
Protocol: Typically, the in vitro antimicrobial activity of antimicrobial agents is tested using standard NCCLS bacterial inhibition assays, or MIC tests (see, National Committee on Clinical Laboratory Standards “Performance Standards for Antimicrobial Susceptibility Testing,” NCCLS Document M100-S5 Vol. 14, No. 16, December 1994; “Methods for dilution antimicrobial susceptibility test for bacteria that grow aerobically-Third Edition,” Approved Standard M7-A3, National Committee for Clinical Standards, Villanova, Pa.).
(§1) Briefly, ˜1×10^5 cfu/mL bacteria were diluted in TH (S. mutans), or Mueller-Hinton (MH) broth (all other organisms) and distributed to 96-well plates. Serially-diluted (2-fold) peptides were then added and the plates incubated at 37° C. for 18-24 h. […] All experiments were conducted 10 times.

S. aureus = assay: Post-antibiotic effect assay (growth retardation after 10 min exposure); format: cell-based, Staphylococcus aureus; details: S. aureus monoculture, peptide 10 min, then fresh medium
Protocol: (§2) The activity and selectivity of MH-STAMPs after a 10 min incubation was determined by growth retardation experiments against targeted and untargeted bacteria in monocultures, as described previously (Id.). Cells from overnight cultures were diluted to ˜5×10^6 cfu/mL in MH (or TH with 1% sucrose for S. mutans), normalized by OD600 0.05-0.1 and seeded to 96-well plates. Cultures were then grown under the appropriate conditions for 2 h (3 h for S. mutans) prior to the addition of peptides for 10 min. Plates were then centrifuged at 3000×g for 5 min, the supernatants discarded, fresh medium returned (MH or TH without sucrose for S. mutans), and incubation resumed. Bacterial growth after treatment was then monitored over time by OD600.

[2] = tested on: Staphylococcus aureus Newmann; format: cell-based
Protocol: (§3) Aerobic Gram-negative organisms were grown in Lauri-Bertaini (LB) broth and Gram-positive bacteria in Brain-heart infusion (BHI) broth. Streptococcus mutans JM11 (spectinomycin resistant, UA140 background) was grown in Todd-Hewitt (TH) broth under anaerobic conditions (80% N2, 15% CO2, 5% H2) at 37° C. Merritt et al. (2005) J Microbiol Meth., 61: 161-170. All bacteria were grown overnight to an OD600 of 0.8-1.0 prior to appropriate dilution and antimicrobial testing.
as §1

[3] = tested on: Klebsiella pneumoniae KAY 2026; format: cell-based
Protocol: as §3, §1

S. epidermidis [4] = assay: Post-antibiotic effect assay (growth retardation after 10 min exposure); format: cell-based, Staphylococcus epidermidis; details: S. epidermidis monoculture, peptide 10 min, then fresh medium
Protocol: as §2

S. epidermidis [5] = format: cell-based, Staphylococcus epidermidis
Method in brief: (§4)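 2-fold dilution series of peptides in 96-well plates, inoculated at about 1×10^5 cfu/mL in MH broth, following NCCLS standards. Plates held 18–24 h at 37 °C; each run repeated 10 times.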

E. coli [6] = assay: Post-antibiotic effect assay (growth retardation after 10 min exposure); format: cell-based, Escherichia coli; details: E. coli monoculture, peptide 10 min, then fresh medium
Protocol: as §2

E. coli [7] = format: cell-based, Escherichia coli
Method in brief: as §4

P. aeruginosa [8] = assay: Post-antibiotic effect assay (growth retardation after 10 min exposure); format: cell-based, Pseudomonas aeruginosa; details: P. aeruginosa monoculture, peptide 10 min, then fresh medium
Protocol: as §2

S. mutans [9] = assay: as above; format: cell-based, Streptococcus mutans; details: S. mutans monoculture, peptide 10 min, then fresh medium
Protocol: as §2

[10] = tested on: Mixed planktonic populations of P. aeruginosa, E. coli, S. epidermidis, and S. mutans; assay: Microbial population shift assay; format: cell-based; details: 10 μM peptide, 24 h
Protocol: Peptide (10 μM) or mock-treatment (1× PBS) was then added and samples were incubated at 37° C. for 24 h under anaerobic conditions (80% N2, 15% CO2, 5% H2). […] Plates were then incubated 37° C. under aerobic conditions (TH plates were incubated anaerobically) and colonies counted after 24 h to determine survivors. […] Gram stains and direct microscopic observation (from select isolated colonies) were undertaken to confirm species identity (data not shown). The detection limit of the assay was 200 cfu/mL.

panel of bacteria = assay: General antimicrobial activity by MIC against a panel of bacteria; format: cell-based; details: panel of bacteria (Table 19)
Protocol: as §1

S. mutans [11] = format: cell-based, Streptococcus mutans
[12] = tested on: BHK-21 (ATCC CRL-10) fibroblasts; assay: Cytotoxicity, Promega CellTiterGlo assay; format: cell-based, hamster
Protocol: Streptococcus oralis ATCC 10557, Streptococcus gordonii (Challis), Streptococcus sanguinis (NY101), Streptococcus mitis ATCC 903, Streptococcus salivarius ATCC 13419 and S. mutans wild-type UA140 and JM11 (spectinomycin-resistant) strains were grown in Todd-Hewitt (TH) broth 37° C. in an anaerobic atmosphere of 80% N2, 10% CO2, and 10% H2. BHK-21 (ATCC CRL-10) fibroblasts were propagated in DMEM with 10% FBS, 1 mM sodium pyruvate, 100 units/mL penicillin G, and 100 μg/mL streptomycin at 37° C. with 5% CO2. Cells were detached with 0.25% trypsin and subcultured as recommended by the supplier.
The effect of RB and C16-RB on […] fibroblasts was ascertained by utilizing the Promega CellTiterGlo assay, as described by the manufacturer. Briefly, fibroblasts were grown to confluence, detached, and seeded to ˜5,000 cells per well in a 96-well opaque walled, clear bottom 96-well plate (Nunc International). For long-term dark toxicity, cells were allowed to attach to for 18 h before the culture medium was replaced with medium plus serially-diluted RB or C16-RB (200 μM to 390 nM) or medium alone. After 18-24 h, equal volume Cell Titer Glo reagent was added to each well and mixed. Luciferace activity was then quantified to measure cell viability (Varian Fluorometer in Biolumenescence mode). To measure cytotoxicity after RB or C16-RB light exposure, cells were seeded at ˜10,000 cells per well and allowed to attach for 4 h. Cell growth medium was then replaced with RB or C16-RB containing medium, prior to exposure (a single well at a time) with blue light (400 mW/cm^2) suspended ˜3 cm from the well bottom. After exposure, cultures were disrupted with Cell Titer Glo and luciferase activity quantitated as above.

[13] = tested on: mixed biofilms of S. mutans JM11 plus S. oralis, S. gordonii, S. mitis, S. sanguinis, and S. salivarius; assay: Photodynamic antimicrobial assay against multispecies biofilms; format: cell-based; details: blue light
Protocol: To gauge C16-RB selectivity for S. mutans, similar assays were conducted against multispecies biofilms. Mixed biofilms were seeded by diluting (1:5000) a mixture of equal parts S. oralis, S. gordonii, S. mitis, S. sanguinis, S. salivarius, and S. mutans JM11 (made from overnight cultures) into TH with 1% sucrose, 1% glucose, and 1% mannose. Biofilms were incubated and treated as described above with the addition of vitamin C or potassium gluconate. After the addition of agent and 5 min incubation, biofilms were washed 1× with 1× PBS prior to light exposure. After PDT and biofilm disruption, survivors were plated on TH, and TH supplemented with 800 μg/mL spectinomycin, which allowed for quantitation of surviving total oral streptococci and surviving S. mutans, respectively.

S. mutans UA140 biofilms = assay: Photodynamic antimicrobial assay against single-species biofilms; format: cell-based, Streptococcus mutans; details: 5 μM, dark controls
Protocol: To evaluate C16-RB against monoculture biofilms, S. mutans UA140 was grown overnight in TH prior to inoculation for biofilm formation. For biofilms, 1:5000 dilution of overnight culture was made into TH with 1% sucrose in 2 mL centrifuge tubes (200 μL volume) and grown 24 h under anaerobic conditions. After incubation, biofilms were treated for 5 min with 5 or 25 μM C16-RB or 5 μM RB in 1× PBS, or PBS alone, followed by removal of supernatant and exposure to 5 min blue light (emission 400-550 nm, power 400 mW/cm^2) from an Astralis 7 (Ivoclar Vivodent, Austria) handheld LED commonly used as a dental curing light. The light source was suspended 4 cm from the tube bottom (even with the mouth of the tube). A duplicate set of samples were left covered to serve as dark controls. After treatment, biofilms were mechanically disrupted and plated to determine cfu/mL.

`CC[C@H](C)[C@H](NC(=O)[C@@H](N)Cc1ccccc1)C(=O)N[C@@H](CCCNC(=N)N)C(=O)N[C@@H](CCCCN)C(=O)N[C@@H](Cc1ccccc1)C(=O)N[C@@H](CC(C)C)C(=O)N[C@@H](CCCCN)C(=O)N[C@@H](CCCCN)C(=O)N[C@@H](Cc1c[nH]c2ccccc12)C(=O)N[C@@H](CC(C)C)C(=O)N[C@@H](CC(C)C)C(N)=O` [BD2.20] (H-FIRKFLKKWLL-NH2; N-terminus assumed) was tested, and the MIC (P. aeruginosa [1]) was 14.4 ± 4.40 µM (≈ 21.5 µg/mL), the “bacterial growth (OD600) after treatment” value (S. aureus) was “inhibited” and the MIC [2] was 5.625 ± 1.29 µM (≈ 8.39 µg/mL). For the same compound, the MIC [3] was 2.98 ± 0.47 µM (≈ 4.44 µg/mL), the “bacterial growth (OD600) after treatment” value (S. epidermidis [4]) was “inhibited” and the MIC (S. epidermidis [5]) was 5.11 ± 1.58 µM (≈ 7.62 µg/mL). For the same compound, the “bacterial growth (OD600) after treatment” value (E. coli [6]) was “inhibited”, the MIC (E. coli [7]) was 5.47 ± 1.41 µM (≈ 8.16 µg/mL) and the “bacterial growth (OD600) after treatment” value (P. aeruginosa [8]) was “robust antimicrobial activity”. For the same compound, the “bacterial growth (OD600) after treatment” value (S. mutans [9]) was “robust antimicrobial activity”, the “recoverable (surviving) cfu/mL” value ([10]; E. coli in mixed culture) was “significant loss of recoverable cfu/mL” and the “recoverable (surviving) cfu/mL” value ([10]; P. aeruginosa in mixed culture) was “significant loss of recoverable cfu/mL”. The “recoverable (surviving) cfu/mL” value ([10]; S. epidermidis in mixed culture) was “significant loss of recoverable cfu/mL”, the “recoverable (surviving) cfu/mL” value ([10]; S. mutans in mixed culture) was “significant loss of recoverable cfu/mL” and the “general antimicrobial activity by MIC” value (panel of bacteria) was “robust MICs”. It also gave an MIC (S. mutans [11]) of 2.86 ± 0.60 µM (≈ 4.26 µg/mL).
`O=C1OC2(c3cc(I)c(O)c(I)c3Oc3c2cc(I)c(O)c3I)c2c(Cl)c(Cl)c(Cl)c(Cl)c21` [RB, rose bengal] was tested, and the “light-dependent (photo-associated) toxicity” value ([12]; BHK cells, blue light) was “light-dependent toxicity was observed”, the IC50 ([12]; BHK, 5 min dark) was over 100 µM and the “photodynamic antimicrobial activity, selectivity” value ([13]; mixed biofilm) was “strong indiscriminant photodynamic antimicrobial effects”. For the same compound, the “ratio of surviving S. mutans:non-cariogenic streptococci cfu” value ([13]; plus potassium gluconate) was about 1 and the “decrease in cfu/mL” value (S. mutans UA140 biofilms) was “appreciable decreases in cfu/mL were not observed”.
